# Reference: patent US9340500B2, “Aromatic heterocyclic derivative having TRPV4-inhibiting activity” (SHIONOGI & CO., LTD., priority 2011, dated 2016)
# pIC50, pKi: −log10 of the molar value.
# Tests used:
# human TRPV4 [1] = target: T1, human TRPV4 (Homo sapiens (Human), UniProt Q9HBA0); assay: Test Example 1: measurement of TRPV4 inhibitory activity (Fluo 4-AM, FLIPR TETRA, 4α-PDD 1 μmol/L); format: cell-based; settings: hTRPV4/CHO cells; for pIC50: 4α-PDD 1 μmol/L; for pKi: calculated from IC50 and 4α-PDD EC50
# T1 sequence (Q9HBA0 whole entry): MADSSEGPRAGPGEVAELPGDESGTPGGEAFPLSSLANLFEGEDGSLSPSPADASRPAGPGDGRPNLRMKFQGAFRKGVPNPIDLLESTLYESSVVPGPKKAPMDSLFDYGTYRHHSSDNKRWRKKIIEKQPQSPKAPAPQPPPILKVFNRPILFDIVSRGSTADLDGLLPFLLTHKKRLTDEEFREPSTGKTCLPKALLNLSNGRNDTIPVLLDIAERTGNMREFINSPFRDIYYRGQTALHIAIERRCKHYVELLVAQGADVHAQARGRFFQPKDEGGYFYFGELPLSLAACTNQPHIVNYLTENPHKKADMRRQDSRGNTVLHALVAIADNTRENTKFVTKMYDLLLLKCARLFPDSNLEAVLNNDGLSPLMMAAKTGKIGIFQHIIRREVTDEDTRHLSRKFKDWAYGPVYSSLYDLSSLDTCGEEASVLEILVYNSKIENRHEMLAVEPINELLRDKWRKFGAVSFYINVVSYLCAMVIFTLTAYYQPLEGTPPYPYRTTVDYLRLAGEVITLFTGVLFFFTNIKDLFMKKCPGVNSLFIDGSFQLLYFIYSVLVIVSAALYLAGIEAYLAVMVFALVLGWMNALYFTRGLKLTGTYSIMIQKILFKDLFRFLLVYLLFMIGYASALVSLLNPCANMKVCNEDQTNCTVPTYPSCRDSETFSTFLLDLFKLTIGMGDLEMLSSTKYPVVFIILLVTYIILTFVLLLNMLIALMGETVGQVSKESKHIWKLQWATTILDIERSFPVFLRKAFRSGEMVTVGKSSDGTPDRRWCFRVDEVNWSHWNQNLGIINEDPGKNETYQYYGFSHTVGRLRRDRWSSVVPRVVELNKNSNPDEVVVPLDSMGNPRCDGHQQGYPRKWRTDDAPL
# Procedure: (§1) For each compound, TRPV4 inhibitory activity was measured using cells.
# (§2) (1) The TRPV4 inhibitory activity was measured using CHO-K1 cells stably expressing human TRPV4 (hTRPV4/CHO cells).
# (2) In the day before the experimental day, frozen cell were thawed and washed with the culture medium (MEM-α, 10% FBS, 2 mmol/L GlutaMax, 50 unit Penicillin, 50 μg/mL Streptomycin). Then cells were suspended in the culture medium.
# (3) The 384-well plates which hTRPV4/CHO cells were seeded at densities of 4000 cells/well in the culture medium and cultured in a CO2 incubator in the presence of 5% CO2 at 37° C. for overnight was used as assay plates.
# (4) The assay plate was washed with assay buffer (Hanks, 20 mmol/L HEPES, 2.5 mmol/L probenecid, pH7.4), and the buffer were remained at 20 μL/well.
# (5) 10 μl of dye loading buffer (9 μmol/L Fluo 4-AM, 0.09% Pluronic F-127/assay buffer) was added to each well, then the assay plate was incubated in a CO2 incubator in the presence of 5% CO2 at 37° C. for one hour. (final 3 μmol/L Fluo4-AM).
# (6) The assay plate was washed with the assay buffer, and the buffers were remained at 20 μL/well. Then the assay plate was incubated for 10 min at room temperature.
# (7) Diluted compound solution was dispensed to each well in the compound plate, and mixed with built-in Pipette and Mixer of the Fluorescence analysis system FLIPR TETRA (Molecular devices).
# (8) After incubation for 5 min, 20 μL of 4α-PDD solution were applied to each well of assay plate and mixed with the FLIPR TETRA. (final 1 μmol/L 4α-PDD)
# (9) The fluorescent intensity was measured with FLIPR TETRA system for 10 min from the point of time addition the compound solution, at Ex 470-495 nm, Em 515-575 nm wavelength.
# TRPV4 inhibitory activity (IC50 value and Ki value) of a compound was evaluated according to the following procedure.
# (10) In the presence of the compound, the difference between maximal and minimal of fluorescent intensity value for 5 min from just before addition of 4α-PDD solution was calculated, and it was referred as Max-Min value. Max-Min value of the Ruthenium Red at 20 μM was defined as 100% inhibitory activity, Max-Min value in the absence of the compound was defined as 0% inhibitory activity. The TRPV4 inhibitory activity of the compound was calculated by the following formula. (1−(Max-Min value of the compound−100% inhibitory activity)/(0% inhibitory activity−100% inhibitory activity))×100 (11) Inhibitory activity was calculated at 10 points with three fold serial dilution, in the final concentration of the compound from 10 μmmol/L to 0.5 nmol/L, the IC50 value was calculated by logistic approximation method. (12) In the absence of the compound, the fluorescent intensity was measured as the same method with 10, 1, 0.5, 0.2, and 0 μmol/L as final concentration of 4α-PDD. The difference of minimal and maximal fluorescent intensity value for 5 min from just before addition of 4α-PDD solution was calculated, and it was referred as Max-Min value. Max-Min value of the 4α-PDD at 10 μmol/L was defined as 100% activity, Max-Min value in the absence of 4α-PDD was defined as 0% activity. The TRPV4 activity of each concentration of 4α-PDD was calculated by the following formula. (Max-Min value of the each 4α-PDD concentration−0% activity)/(100% activity−0% activity))×100 (13) Effective activity was calculated in 5 concentrations of 4α-PDD the above. The EC50 value was calculated by logistic approximation method. The Ki value of a compound was calculated by the following formula. Ki (nmol/L)=IC50 value (nmol/L)/(1+[…] (test 4α-PDD concentration (nmol/L)/EC50 value (nmol/L))
# [2] = Metabolism stability test; format: in vitro ADME; settings: human liver microsomes, 30 minutes, compound concentration 0.5 μmol/L
# Procedure: Using a commercially available pooled human hepatic microsomes, a test compound was reacted for a constant time, a remaining rate was calculated by comparing a reacted sample and an unreacted sample, thereby, a degree of metabolism in liver was assessed.
# A reaction was performed (oxidative reaction) at 37° C. for 0 minute or 30 minutes in the presence of 1 mmol/L NADPH in 0.2 mL of a buffer (50 mmol/L Tris-HCl pH 7.4, 150 mmol/L potassium chloride, 10 mmol/L magnesium chloride) containing 0.5 mg protein/mL of human liver microsomes. After the reaction, 50 μL of the reaction mixture was added to 100 μL of a methanol/acetonitrile=1/1 (v/v), mixed and centrifuged at 3000 rpm for 15 minutes. The test compound in the supernatant was quantified by LC/MS/MS, and a remaining amount of the test compound after the reaction was calculated, letting a compound amount at 0 minute reaction time to be 100%. Hydrolysis reaction was performed in the absence of NADPH and glucuronidation reaction was in the presence of 5 mM UDP-glucuronic acid in place of NADPH, followed by similar operations.
# Solubility test = format: physicochemical; settings: artificial intestinal juice (phosphate buffer) with 1% DMSO, fassgf or other biorelevant, kinetic from dmso stock, artificial intestinal juice pH 6.8, 16 hours at 25° C.
# Procedure: The solubility of each compound is determined under 1% DMSO addition conditions. A 10 mmol/L solution of the compound is prepared with DMSO, and 6 μL of the compound solution is added to 594 μL of an artificial intestinal juice (water and 118 mL of 0.2 mol/L NaOH reagent are added to 250 mL of 0.2 mol/L potassium dihydrogen phosphate reagent to reach 1000 mL) with a pH of 6.8. The mixture is left standing for 16 hours at 25° C., and the mixture is vacuum-filtered. The filtrate is two-fold diluted with methanol/water=1/1, and the compound concentration in the filtrate is measured with HPLC or LC/MS/MS by the absolute calibration method.
# human TRPV4 [3] = target: T1, human TRPV4; assay: Test Example 3: measurement of TRPV4 inhibitory activity (Fluo-3, FDSS 3000, 4α-PDD); format: cell-based; settings: hTRPV4/CHO cells, calculated from IC50 and 4α-PDD EC50
# Procedure: as §1, §2
# (2) Frozen cells were thawed and subcultured with the medium (MEM-α, 10% FBS, […], 50 unit/mL penicillin, 50 μg/mL streptomycin, 1 mg/mL G418).
# (3) The 96-well plates which hTRPV4/CHO cells were seeded at densities of 2×10^4 cells/well in the culture medium and cultured in a CO2 incubator in the presence of 5% CO2 at 37° C. for 24 h was used as assay plates.
# (4) The assay plate was washed with assay buffer (Hanks, […], […], pH7.4).
# (5) Fluo-3, fluorescent dye for Ca influx assay was added to each well, then the assay plate was incubated in a CO2 incubator in the presence of 5% CO2 at 37° C. for one hour (final conc.; 5 μmmol/L Fluo-3).
# (6) The assay plate was washed with the assay buffer, and the buffer was remained at 30 μL/well. Then the assay plate was incubated for 10 min at 37° C.
# (7) Diluted compound solution was dispensed to each well in the compound plate, and mixed with built-in Pipette and Mixer of the fluorescence analysis system FDSS 3000 (Hamamatsu Photonics).
# (8) 50 μL of 4α-PDD solution (concluding 0.1% Pluronic F-127) was applied to each well of assay plate and mixed.
# (9) The fluorescent intensity was measured by FDSS 3000 for 8 min from the point of time addition the compound solution, at Ex 480 nm, Em 540 nm wavelength.
# TRPV4 inhibitory activity (Ki value) of a compound was evaluated according to the following procedure.
# (10) In the presence of the compound, the difference between maximal and minimal of fluorescent intensity value for 8 min from just before addition of 4α-PDD solution was calculated, and it was referred as Max-Min value. Max-Min value of the Ruthenium Red at 10 μM was defined as 100% inhibitory activity, Max-Min value in the absence of the compound was defined as 0% inhibitory activity. The TRPV4 inhibitory activity of the compound was calculated by the following formula. (1−(Max-Min value of the compound−100% inhibitory activity)/(0% inhibitory activity−100% inhibitory activity))×100 (11) By the following formula, inhibitory activity was calculated at 10 points with three fold serial dilution, in the final concentration of the compound from 10 μmmol/L to 0.5 nmol/L. The IC50 value was calculated by dose-response curve. 100−[(fluorescent intensity in the presence of the compound−fluorescent intensity of back ground)/(total fluorescent intensity−fluorescent intensity of back ground)]×100 (12) In the presence of the compound, activity of 4α-PDD was measured at 9 points with three fold serial dilution from 20 μmol/L. Activity of 4α-PDD was calculated by the following formula. (Max-Min value of the each 4α-PDD concentration−0% activity)/(100% activity−0% activity))×100 (13) Effective activity was calculated in 4α-PDD the above. The EC50 value was calculated by dose-response curve. (14) The Ki value of a compound was calculated by the following formula. Ki (nmol/L)=IC50 value (nmol/L)/([A]/EC50 value (nmol/L)) [A]; Concentration of agonist (nmol/L)
Structure (SMILES),pIC50 (human TRPV4 [1]),pKi (human TRPV4 [1]),remaining rate (metabolism stability) [2],solubility at 16 h (Solubility test),pKi (human TRPV4 [3])
CCOC(=O)Cc1csc(NC(=O)c2cc(-c3ccccc3)n(CCCN3CCOCC3)c2C)n1 [Compound I-005],–,–,–,> 50 µM,5.77
Cc1c(C(=O)Nc2cccc(C(F)(F)F)c2)cc(-c2ccccc2)n1CCCN(C)CC(C)(C)CN(C)C [Compound I-038],–,–,–,> 50 µM,6.45
Cc1c(C(=O)Nc2ccccc2)cc(-c2ccccc2)n1CCCN1CCOCC1 [Compound I-009],5.82,–,–,> 50 µM,6.17
Cc1c(C(=O)Nc2ccc(Cl)cn2)cc(-c2ccccc2)n1CCCN1CCOCC1 [Compound I-004],–,–,–,39.2 µM,5.80
Cc1c(C(=O)Nc2ccccc2C(F)(F)F)cc(-c2ccccc2)n1CCCN1CCOCC1 [Compound I-022],5.62,–,–,> 50 µM,5.60
Cc1cc(C(=O)Nc2cccc(C(F)(F)F)c2)c(C)n1CCCN1CCOCC1 [Compound I-017],–,–,–,> 50 µM,5.81
Cc1c(C(=O)Nc2cccc(C(F)(F)F)c2)cc(-c2ccccc2)n1CCCN(C)CC1CC1 [Compound I-033],–,–,–,26.8 µM,6.18
Cc1c(C(=O)Nc2cccc(C(F)(F)F)c2)cc(-c2ccccc2)n1CCCN(CCO)CCO [Compound I-016],6.89,–,–,> 50 µM,6.72

# Second part, the molecule after the results:
pIC50 (human TRPV4 [1]),pKi (human TRPV4 [1]),remaining rate (metabolism stability) [2],solubility at 16 h (Solubility test),pKi (human TRPV4 [3]),Structure (SMILES)
5.01,5.33,92.7%,> 50 µM,–,Cc1c(C(=O)Nc2cccc(C(F)(F)F)c2)cc(C2CCNCC2)n1CCCN1CCOCC1 [Compound I-076]
–,–,96.9%,–,6.22,Cc1c(C(=O)Nc2cccc(C(F)(F)F)c2)cc(-c2ccccc2)n1CCCN [Compound I-023]
6.21,–,–,> 50 µM,6.42,Cc1c(C(=O)Nc2cccc(C(F)(F)F)c2)cc(-c2cccnc2)n1CCCN1CCOCC1 [Compound I-021]
6.59,–,–,18.5 µM,6.71,Cc1c(C(=O)Nc2cccc(C(F)(F)F)c2)cc(-c2ccccc2)n1CCCN1CCNC(=O)C1 [Compound I-071]
6.44,–,–,19.3 µM,6.71,Cc1c(C(=O)Nc2cccc(C(F)(F)F)c2)cc(C(C)(C)C)n1CCCN1CCOCC1 [Compound I-002]
5.13,–,–,24.3 µM,5.74,Cc1c(NS(=O)(=O)c2cccc(C(F)(F)F)c2)cc(-c2ccccc2)n1CCCN1CCOCC1 [Compound I-080]
–,–,–,> 50 µM,6.55,Cc1c(C(=O)Nc2cccc(C(F)(F)F)c2)cc(-c2ccccc2)n1CCCN(C)CC1CCN(C)CC1 [Compound I-039]
5.24,5.55,–,35.1 µM,–,O=C(Nc1cccc(C(F)(F)F)c1)c1cnc(-c2ccccc2)c(CCCN2CCOCC2)c1 [Compound I-088]
5.77,6.11,–,> 50 µM,–,Cc1c(C(=O)Nc2cccc(C(F)(F)F)c2)cc(-c2ccncc2)n1CCCN1CCOCC1 [Compound I-074]
5.11,5.49,–,40.2 µM,–,Cc1c(C(=O)Nc2cccc(C(F)(F)F)c2)cc(C#N)n1CCCN1CCOCC1 [Compound I-079]
